{
  "source": "paper PMC2918392",
  "about": "(Journal of medicinal chemistry, 2010)",
  "origin": "cited, not measured here",
  "key": {"µ-opioid receptor [1]": {"system": "µ-opioid receptor"}, "[2]": {"system": "µ opioid receptors (guinea pig ileum)", "details": "read-out: Functional Bioactivity GPI (IC50), ± S.E.M."}, "µ-opioid receptor [3]": {"system": "µ-opioid receptor", "details": "see also ref 1"}},
  "data": [
    {"substance": "Tyr-Pro-Phe-(2S,3S)-β-MePhe-NH2", "values": [
      {"measurement": "activity among EM analogues containing β-MePhe stereoisomers, in words", "setting": "µ-opioid receptor [1]", "result": "highest activity"}
    ]},
    {"substance": "Tyr-Pro-Phe-Phe-OH", "values": [
      {"measurement": "µ-opioid receptor agonist activity, in words", "setting": "µ-opioid receptor [1]; C-terminal free acid", "result": "completely devoid of µ-opioid receptor agonist activity"}
    ]},
    {"substance": "Tyr-Pro-Trp-Phe-NH2 [EM-1]", "values": [
      {"measurement": "affinity and selectivity of activation of µ-opioid receptors, in words", "setting": "µ-opioid receptor [1]", "result": "high affinity and selectivity"}
    ]},
    {"substance": "Tyr-Pro-Phe-Phe-NH2 [EM-2]", "values": [
      {"measurement": "IC50", "setting": "[2]", "result": "0.015 ± 0.002", "unit": "µM"},
      {"measurement": "affinity and selectivity of activation of µ-opioid receptors, in words", "setting": "µ-opioid receptor [1]", "result": "high affinity and selectivity"},
      {"measurement": "µ-opioid receptor selectivity, in words", "setting": "µ-opioid receptor [3]", "result": "c Data from reference 16. Binding affinity based on competition against [^3H]naloxone in rat brain membranes. Data were not presented on the affinity of EM2 at the δ-opioid receptor in that preparation, as EM was shown to be highly selective for µ-opioid receptors (see also reference 1)."}
    ]}
  ]
}
